Consider two compounds from patent publication US8580730B2, “Methods of treating lesional vestibular disorders by administering serotonin 5-HT3 receptor antagonists” ((INSERM) Institut National de la Sante et de la Recherche …, priority 2009, dated 2013).

SMILES strings stand for the structures. “Also recorded” adds a separate entry of the source.

Data set [1] has as its system patients with suspicion of vestibular neuritis. In words: Clinical study of vestibular deficit following acute vestibular neuritis (VNG, hospitalization, first walk). Format: in vivo, human. The note with it: 5 days treatment, ondansetron 8 mg/d vs metoclopramide 30 mg/d, n=10 each; for vestibular deficit, VNG at 1 month / vestibular deficit, early VNG (caloric tests): with methylprednisolone and valacyclovir; for vestibular deficit, VNG at 1 month: p=0.07; for vestibular deficit, early VNG (caloric tests): VNG 24 to 48 hours after beginning of deficit; for vestibular deficit, early VNG (caloric tests) / hospitalization duration: p=0.03; for time of first walk: p=0.001. The protocol:
Methods: A clinical study conducted by the inventors at the Centre Hospitalier Universitaire (CHU) of Montpellier was carried out. Random clinical tests were performed on 20 patients. Patients were selected on the suspicion of vestibular neuritis started for less than 24 h before the hospitalization. The patients were all administered with methylprednisolone and valacyclovir, and either a 5 days treatment with Metoclopramide (30 mg/d, n=10) or with Ondansetron (8 mg/d, n=10). The functional evaluation was based on a early VNG (vestibulonystagmography) test (realized 24 to 48 hours after the beginning of the vestibular deficit) and a VNG at 1 month. The hospitalization duration and the date of the first walk were also recorded.

A short description of data set [2]: Stability of solution comprising ondansetron base. Format: physicochemical. The note with it: 1 month storage. The protocol: Chemical stability of the solution was also assessed: […]
In data set [3] the test system is hair cells and synaptic terminals of vestibular sensory epithelia (utricles). In words: Histological and morphometric evaluation of kainate-induced vestibular lesions. Format: in vivo, rat. The note with it: 4 mg/kg ip 1 h after KA. The protocol: 1 h after KA injection, vestibular behavior of the animals was tested followed by ondansetron injection in the treatment group. […] Subsequently, the animals were tested at 2 h, 6 h, 24 h and 48 h after KA injection. Histological and morphometric analysis were performed at 2 and 24 hours after KA injection in the presence and absence of ondansetron treatment.
Preparation of semi-thin sections of sensory epithelia. We anesthetized female adult rats (Wistar; 200-220 g; n=3 for each treatment) with pentobarbital (0.4%). Animals were perfused transcardially with heparin PBS (0.01M) followed by a fixative solution (2% paraformaldehyde, 2.5% glutaraldehyde 1% picric acid, 5% sucrose) and samples post-fixed. […] Whole vestibular organs were postfixed in 2% OsO4, dehydrated, embedded in Araldite, and 1 μm thick sections were cut. A Nanozoomer Slide Scanner (RIO imaging, Montpellier, France) allowed the observation and scanning of samples mounted on slides.
Scans of semi-thin sections acquired with the Nanozoomer Slide Scanner were analyzed. Quantification of hair cells in utricles was done with Metamorph software (Universal Imaging). For each lesioned and contralateral ear, 3 sections distant of 20 to 25 μm each were analyzed. Thus, 400 cells for each epithelium were counted for each treatment on 3 different animals with the contralateral ear as pooled control. […] ANOVA was used to search for statistical difference, followed by Tukey Test to compare between treatments.

Data set [4] has as its system IDPN-induced bilateral vestibular deficit. In words: Behavioral evaluation of bilateral (nitrile, IDPN)-induced vestibular deficit. Format: in vivo, rat. An excerpt: Vestibular rating score was estimated as previously described (Brugeaud et al., 2007; Boadas-Vaello et al. 2005). Animals were scored from range 0 to 4, respectively corresponding to normal behavior to maximal vestibular deficit. Rating 1 means that the behavior is not normal but no specific vestibular deficit is effectively determined; rating 2 corresponds to an identified but slight vestibular deficit and, rating 3 describes an identified and evident deficit. Six different tests were sequentially scored and totalized to rate the vestibular deficit: 1—the head bobbing, when abnormal intermittent backward extension of the neck was observed; 2—the circling stereotyped movement ranging from none to compulsive circles around the animal hips; 3—the retro-pulsion, a typical backward walk reflecting vestibular disturbance; 4—the tail-hanging reflex, that normally induces a normal forelimb extension to reach the ground, results in the ventral bent of the body and grip of the tail when the vestibular deficit is maximal; 5—the contact-inhibition reflex normally leads animal hold to a metal grid in a subpine position to return when their back touch the ground; in case of vestibular deficit with a lack in the body orientation referential, this reflex is abolished, the animal stays griped to the grid in a supine position; 6—the air-righting reflex is necessary for animals to land on their feet when they fall from a supine position; vestibular dysfunction impairs this normal reversal, a maximal deficit leads the animal to land on its back when dropped from a height of 40 cm onto a foam cushion. Vestibular rating scores were expressed for each time point as a percentage of the t0 score.
Validation of the restorative effect of said serotonin 5-HT3 antagonist is also assessed on animal model of bilateral vestibular deficit by analysing the time course of arrival and removal of both excitotoxic lesions and ensuing vestibular deficit following intoxication with nitriles (IP injection—Seoane et al., J. Comp. Neurol. 2001, 439:385-399). […] Protection is assessed by administration of said serotonin 5-HT3 antagonist following different schedules (at the start of chronic intoxication; 24 and 48 h after).
IDPN (1 g/kg; ip) induces bilateral and permanent vestibular damage through destruction of the vestibular sensory epithelium. […] We assessed the effect of IDPN injection using behavioral testing of vestibular deficits. We evaluated the protective effect of single or double injections of ondansetron throughout the time course of injury progression following IDPN injection to determine the vestibuloprotective potential of ondansetron. […]

The test system of data set [5] is kainate-induced unilateral vestibular deficit. In words: Behavioral evaluation of excitotoxically (kainate)-induced unilateral vestibular deficit. Format: in vivo, rat. The following applies: 4 mg/kg ip 1 h after transtympanic KA injection; 24 h after KA; vs untreated; p=0.022 Mann Whitney. The method, then: Validation of the restorative effect of said serotonin 5-HT3 antagonist is assessed by analysing the time course of arrival and removal of both excitotoxic lesions and ensuing vestibular deficit that occur within vestibular endorgans during intra auricular application of glutamate agonists. In the vestibular endorgans, massive application of kainic acid induces excitotoxic impairments of the neuronal network in the sensory organs (swelling of terminals that contact hair cells-Brugeaud et al., 2007). Histological studies of the expansion and reduction of excitotoxic lesions are undertaken using light and electron microscopy. Behavioural evaluation of vestibular deficit is undertaken using specific behavioural tests of the vestibular function. Under the paradigm developed in the rat, transtympanic application of kainic acid allows its diffusion into the inner ear. […] We evaluate the effect of KA injection using behavioral testing of vestibular deficits and histological quantification of the induced lesion. […] Animals were scored from range 0 to 4, respectively corresponding to normal behavior to maximal vestibular deficit. Rating 1 means that the behavior is not normal but no specific vestibular deficit is effectively determined; rating 2 corresponds to an identified but slight vestibular deficit and, rating 3 describes an identified and evident deficit. […]

`CCN(CC)CCNC(=O)c1cc(Cl)c(N)cc1OC` [Metoclopramide]: in data set [1], the “vestibular deficit, VNG at 1 month” value is 63,4%; the “vestibular deficit, early VNG (caloric tests)” value (“vestibular deficit, early VNG” below) was 84.38%; the “time of first walk” value came to 2.25 days; the hospitalization duration is 4.5 days. In data set [1] (listed as M), the “vestibular deficit, VNG at 1 month” value is 63.4%. Also, the “vestibular deficit, early VNG” value in data set [1] (listed as metoclopramid) is 84,38%.

For `Cc1nccn1CC1CCc2c(c3ccccc3n2C)C1=O` (centres unmarked) [Ondansetron, 1,2,3,9-tetrahydro-9-methyl-3-[(2-methyl-1H-imidazol-1-yl)methyl]-4H-carbazol-4-one], in data set [2], the “chemical degradation with pH modification” value is listed as “not associated to significant chemical degradation”. In addition, in data set [1], the “vestibular deficit, VNG at 1 month” value is on record as 43,0%; the “vestibular deficit, early VNG” value is given as 56,53%; the “time of first walk” value was determined as 1.25 days; the hospitalization duration is reported as 2.88 days. For the same compound, the “vestibular deficit, VNG at 1 month” value in data set [1] (listed as O) is recorded as 43%. Also, the “number of not-determined hair cells” value in data set [3] (24 hrs after the KA lesion, P<0.01) is recorded as “significantly reduced”. Also, in data set [3] (24 hrs after the KA lesion, p<0.01), the “number of type I hair cells” value is “significantly increased”. Besides, in data set [3] (24 hrs after the lesion), the “maturation of neo-formed synaptic terminals (photonic microscopy)” value is on record as “seemed to potentiate”. In addition, the “time course of increasing vestibular deficits” value in data set [4] (1 dose 4 mg/kg ip 24 h after IDPN injection) is listed as “not significantly altered”. In data set [4] (1 dose 4 mg/kg ip 48 h after IDPN injection), the “time course of increasing vestibular deficits” value is “not significantly altered”. In addition, in data set [4] (1 dose 4 mg/kg ip simultaneously with IDPN 1 g/kg ip), the “time course of increasing vestibular deficits” value is recorded as “not significantly altered”. Further, the “time course of increasing vestibular deficit / vestibular deficits at 54 h” value in data set [4] (2 doses 4 mg/kg ip 24 and 48 hours after IDPN injection, at 54 h, 4 mg/kg) is “significant modification; also recorded: significantly less severe”. Also, the “vestibular deficits (vestibular rating score) at 24 hours” value in data set [5] is recorded as “significantly reduced”.
